In this assay the target is PARG (Homo sapiens, UniProt Q86W56). The assay is described as follows: Biochemical assay (PARG, TFMU-ADPr substrate).
[1] abbreviates: 4 nM PARG, 66.2 uM TFMU-ADPr, 3 min at room temperature.

Structures are written as SMILES.

Chain of PARG (Q86W56 whole entry): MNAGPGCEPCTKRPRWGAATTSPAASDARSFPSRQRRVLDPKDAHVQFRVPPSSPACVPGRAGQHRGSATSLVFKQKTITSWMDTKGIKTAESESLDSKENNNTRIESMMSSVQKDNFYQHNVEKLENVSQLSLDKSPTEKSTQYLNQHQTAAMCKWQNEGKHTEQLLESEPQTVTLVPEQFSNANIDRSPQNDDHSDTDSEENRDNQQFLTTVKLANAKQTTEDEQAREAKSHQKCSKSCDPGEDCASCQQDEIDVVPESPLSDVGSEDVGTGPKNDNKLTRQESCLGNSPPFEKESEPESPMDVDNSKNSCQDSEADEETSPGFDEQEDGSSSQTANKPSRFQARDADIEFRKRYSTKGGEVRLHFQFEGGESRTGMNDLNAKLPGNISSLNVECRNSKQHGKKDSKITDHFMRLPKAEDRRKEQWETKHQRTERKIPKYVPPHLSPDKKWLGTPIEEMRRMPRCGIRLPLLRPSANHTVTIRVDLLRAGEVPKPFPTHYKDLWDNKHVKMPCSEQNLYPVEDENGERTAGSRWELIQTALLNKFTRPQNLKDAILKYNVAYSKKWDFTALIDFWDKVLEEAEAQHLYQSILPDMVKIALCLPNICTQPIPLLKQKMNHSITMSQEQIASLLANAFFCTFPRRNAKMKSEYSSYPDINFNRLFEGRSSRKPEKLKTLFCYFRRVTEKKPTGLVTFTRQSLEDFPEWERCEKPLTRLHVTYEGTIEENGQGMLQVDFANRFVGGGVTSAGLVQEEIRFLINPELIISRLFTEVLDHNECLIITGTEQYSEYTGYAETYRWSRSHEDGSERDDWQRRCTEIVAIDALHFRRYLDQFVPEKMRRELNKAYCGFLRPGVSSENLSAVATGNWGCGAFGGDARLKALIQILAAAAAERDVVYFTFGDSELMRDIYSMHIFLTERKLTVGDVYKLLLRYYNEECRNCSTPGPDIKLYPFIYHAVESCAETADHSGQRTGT

For the compound `C[C@H]1CN(c2cc(S(=O)(=O)NC3(C)COC3)cn3c(-c4nnc(C(F)(F)F)s4)nc(Cl)c23)C[C@H](C)O1` [Example 134, 1-chloro-8-((2S,6S)-2,6-dimethylmorpholino)-N-(3-methyloxetan-3-yl)-3-(5-(trifluoromethyl)-1,3,4-thiadiazol-2-yl)imidazo[1,5-a]pyridine-6-sulfonamide], inhibition (PARG, TFMU-ADPr substrate) was half-maximal at 69.2 nM (IC50). That is a double-digit nanomolar value.

With `N#CC1(NS(=O)(=O)c2cc(N3CCC(CO)(C(F)(F)F)CC3)c3cnc(-c4nnc(C(F)F)s4)n3c2)CC1` [Example 145, N-(1-cyanocyclopropyl)-3-(5-(difluoromethyl)-1,3,4-thiadiazol-2-yl)-8-(4-(hydroxymethyl)-4-(trifluoromethyl)piperidin-1-yl)imidazo[1,5-a]pyridine-6-sulfonamide], the concentration for half-maximal inhibition (IC50) (in general, the concentration needed to halve the response being measured) runs as follows: under setting [1], 100 to 500 nM; (PARG, TFMU-ADPr substrate) 316 nM.

Regarding `C[C@@H]1CN(c2cc(S(=O)(=O)NC3(C#N)CC3)cn3c(-c4nnc(C(F)F)s4)ncc23)[C@@H](C)CN1C(=O)C1(C)CC1` [Example 93, N-(1-cyanocyclopropyl)-3-(5-(difluoromethyl)-1,3,4-thiadiazol-2-yl)-8-((2S,5R)-2,5-dimethyl-4-(1-methylcyclopropane-1-carbonyl)piperazin-1-yl)imidazo[1,5-a]pyridine-6-sulfonamide], the IC50 by setting is: under setting [1], less than 100 nM; (PARG, TFMU-ADPr substrate) 75.9 nM.

For the compound `Cc1nnc(-c2cnc3c(N4CCN(C(=O)C(C)C)CC4)cc(S(=O)(=O)NC4(C#N)CC4)cn23)s1` [Example 2, N-(1-cyanocyclopropyl)-8-(4-isobutyrylpiperazin-1-yl)-3-(5-methyl-1,3,4-thiadiazol-2-yl)imidazo[1,2-a]pyridine-6-sulfonamide], the IC50 (PARG, TFMU-ADPr substrate) came to 2100 nM.

Turning to `CC(N1CCN(c2cc(S(=O)(=O)NC3(C#N)CC3)cn3c(-c4nnc(C(F)F)s4)ncc23)C[C@H]1C)C(F)(F)F` (stereo partly drawn) [Example 83, N-(1-cyanocyclopropyl)-3-(5-(difluoromethyl)-1,3,4-thiadiazol-2-yl)-8-((3R)-3-methyl-4-(1,1,1-trifluoropropan-2-yl)piperazin-1-yl)imidazo[1,5-a]pyridine-6-sulfonamide], the IC50 runs as follows: under setting [1], 100 to 500 nM; (PARG, TFMU-ADPr substrate) 347 nM.

Take `CC1(O)CCN(c2cc(S(=O)(=O)NC3(C)CC3)cn3c(-c4nnc(C(F)F)s4)nnc23)CC1` [Example 116, 3-(5-(difluoromethyl)-1,3,4-thiadiazol-2-yl)-8-(4-hydroxy-4-methylpiperidin-1-yl)-N-(1-methylcyclopropyl)-[1,2,4]triazolo[4,3-a]pyridine-6-sulfonamide]: the IC50 is, setting by setting: under setting [1], less than 100 nM; (PARG, TFMU-ADPr substrate) 50 nM.

Regarding `CN1CC(Nc2cc(S(=O)(=O)NC3(C#N)CC3)cn3c(-c4nnc(C(F)F)s4)ncc23)C1` [Example 150, N-(1-cyanocyclopropyl)-3-(5-(difluoromethyl)-1,3,4-thiadiazol-2-yl)-8-((1-methylazetidin-3-yl)amino)imidazo[1,5-a]pyridine-6-sulfonamide], the IC50 is less than 100 nM under setting [1] and 8.29 nM (PARG, TFMU-ADPr substrate).

As for `CC(C)C(=O)N1CCN(c2cc(S(=O)(=O)N[C@H]3C[C@@H]3F)cn3c(-c4nnc(C(F)F)s4)ncc23)CC1` [Example 81, 3-(5-(difluoromethyl)-1,3,4-thiadiazol-2-yl)-N-((1S,2S)-2-fluorocyclopropyl)-8-(4-isobutyrylpiperazin-1-yl)imidazo[1,5-a]pyridine-6-sulfonamide], under setting [1], the IC50 was greater than 1000 nM.

Turning to `CC(C)C(=O)N1CCN(c2cc(S(=O)(=O)NC(C3CC3)C(F)(F)F)cn3c(-c4nnc(C(F)F)s4)ncc23)CC1` (centres unmarked) [Example 36, N-(1-cyclopropyl-2,2,2-trifluoroethyl)-3-(5-(difluoromethyl)-1,3,4-thiadiazol-2-yl)-8-(4-isobutyrylpiperazin-1-yl)imidazo[1,5-a]pyridine-6-sulfonamide], the IC50 by setting is: under setting [1], 500 to 1000 nM; (PARG, TFMU-ADPr substrate) 649 nM.

Turning to `N#CC1(NS(=O)(=O)c2cc(N3CCC(O)(C(F)(F)F)CC3)c3cnc(-c4nnc(C(F)F)s4)n3c2)CC1` [Example 89, N-(1-cyanocyclopropyl)-3-(5-(difluoromethyl)-1,3,4-thiadiazol-2-yl)-8-(4-hydroxy-4-(trifluoromethyl)piperidin-1-yl)imidazo[1,5-a]pyridine-6-sulfonamide], the IC50 is 100 to 500 nM under setting [1] and 115 nM (PARG, TFMU-ADPr substrate).

Under “PARG, TFMU-ADPr substrate”, `C=CC(=O)N1CCC(c2cnc3c(N4CCN(C(=O)C(C)C)CC4)cc(S(=O)(=O)NC4(C#N)CC4)cn23)C1` (centres unmarked) [Example 19, 3-(1-acryloylpyrrolidin-3-yl)-N-(1-cyanocyclopropyl)-8-(4-isobutyrylpiperazin-1-yl)imidazo[1,2-a]pyridine-6-sulfonamide] showed an IC50 of 7240 nM.

As for `N#CC1(NS(=O)(=O)c2cc(N3CC4COCC4C3)c3cnc(-c4nnc(C(F)F)s4)n3c2)CC1` (centres unmarked) [Example 79, N-(1-cyanocyclopropyl)-3-(5-(difluoromethyl)-1,3,4-thiadiazol-2-yl)-8-(tetrahydro-1H-furo[3,4-c]pyrrol-5(3H)-yl)imidazo[1,5-a]pyridine-6-sulfonamide], the 50% inhibitory concentration (IC50) by setting is: under setting [1], less than 100 nM; (PARG, TFMU-ADPr substrate) 52.5 nM.

With `CC(C)C(=O)N1CCN(c2cc(S(=O)(=O)NC3(C#N)CC3)cn3c(-c4cc5n(n4)CC(F)C5)cnc23)CC1` (centres unmarked) [Example 10, N-(1-cyanocyclopropyl)-3-(5-fluoro-5,6-dihydro-4H-pyrrolo[1,2-b]pyrazol-2-yl)-8-(4-isobutyrylpiperazin-1-yl)imidazo[1,2-a]pyridine-6-sulfonamide], under setting [1], the IC50 was 500 to 1000 nM.

On to `COc1ccc(N(C)c2cc(S(=O)(=O)NC3(C#N)CC3)cn3c(-c4nnc(C(F)F)s4)ncc23)cc1` [Example 45, N-(1-cyanocyclopropyl)-3-(5-(difluoromethyl)-1,3,4-thiadiazol-2-yl)-8-((4-methoxyphenyl)(methyl)amino)imidazo[1,5-a]pyridine-6-sulfonamide], for which the IC50 was 100 to 500 nM under setting [1] and 135 nM (PARG, TFMU-ADPr substrate).

For `CC1(O)CCN(c2cc(S(=O)(=O)NC3(CF)COC3)cn3c(-c4nnc(C(F)F)s4)ncc23)CC1` [Example 73, 3-(5-(difluoromethyl)-1,3,4-thiadiazol-2-yl)-N-(3-(fluoromethyl)oxetan-3-yl)-8-(4-hydroxy-4-methylpiperidin-1-yl)imidazo[1,5-a]pyridine-6-sulfonamide], the half-inhibitory concentration (IC50) runs as follows: under setting [1], less than 100 nM; (PARG, TFMU-ADPr substrate) 41.7 nM.

Turning to `CC1(C(=O)N2CCN(c3cc(S(=O)(=O)NC4(C#N)CC4)cn4c(-c5nnc(C(F)F)s5)ncc34)CC2(C)C)CC1` [Example 95, N-(1-cyanocyclopropyl)-3-(5-(difluoromethyl)-1,3,4-thiadiazol-2-yl)-8-(3,3-dimethyl-4-(1-methylcyclopropane-1-carbonyl)piperazin-1-yl)imidazo[1,5-a]pyridine-6-sulfonamide], the IC50 under setting [1] was less than 100 nM and the IC50 (PARG, TFMU-ADPr substrate) worked out at 100 nM.

Turning to `N#CC1(NS(=O)(=O)c2cc(N3CCC(OCC(F)(F)F)CC3)c3cnc(-c4nnc(C(F)F)s4)n3c2)CC1` [Example 47, N-(1-cyanocyclopropyl)-3-(5-(difluoromethyl)-1,3,4-thiadiazol-2-yl)-8-(4-(2,2,2-trifluoroethoxy)piperidin-1-yl)imidazo[1,5-a]pyridine-6-sulfonamide], the IC50 by setting is: under setting [1], less than 100 nM; (PARG, TFMU-ADPr substrate) 5.91 nM.
